Source: patent US20180327367A1, “MACROCYCLIC BROAD SPECTRUM ANTIBIOTICS” (priority 2015, published 2018)
pIC50: −log10 of the molar value. Converted amounts (≈) assume the structure as drawn. Like-named read-outs stand apart in the source and are kept apart here.

Tests used:
[1] = test system: Methicillin Resistant Staphylococcus aureus strain USA 300, NRS384; test: Minimum inhibitory concentration, broth micro-dilution (CLSI), S. aureus; format: cell-based; settings: Staphylococcus aureus, MRSA / NRS 384 / USA300, 22 h
Method in brief: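 Ten-point 2-fold series began at 4 μg/mL in protocol 2 and 0.5 μg/mL in protocol 3, in cation-adjusted MHB plus 0.002% Tween-80. Bacteria added to OD600 0.0005 final and incubated at 35° C for 22 hours per CLSI microdilution.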

[2] = test system: Escherichia coli ATCC 25922; test: Minimum inhibitory concentration, broth micro-dilution (CLSI), E. coli; format: cell-based; settings: Escherichia coli, ATCC25922, 22 h
[3] = test system: Escherichia coli MC4100 harboring the IMP4213 (E. coli IMP); test: microbe, parasite or virus in culture; format: cell-based; settings: Escherichia coli, 22 h
Method in brief: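 Colonies grown 20 hours at 35° C were suspended in cation-adjusted Mueller Hinton Broth with 0.002% Tween-80. Cells were then added to 2-fold compound dilutions starting at 4 or 0.5 μg/mL, at OD600 0.0005.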

[4] = target: T1, SpsB (Staphylococcus aureus signal peptidase) (Staphylococcus aureus, UniProt P0A070); test: cell-based; format: biochemical; settings: SpsB IC50, whole-cell S. aureus (USA300 background, overexpressing SpsB) as SpsB source; fluorogenic peptide substrate, kinetic read 30 min
T1 construct: This assay uses a suspension of Staphylococcus aureus cells as a source of SpsB instead of recombinant SpsB protein; endogenous in cells; host or cells: S. aureus, USA300 background, overexpressing SpsB (whole-cell suspension from frozen pellets)
T1 sequence (P0A070 whole entry): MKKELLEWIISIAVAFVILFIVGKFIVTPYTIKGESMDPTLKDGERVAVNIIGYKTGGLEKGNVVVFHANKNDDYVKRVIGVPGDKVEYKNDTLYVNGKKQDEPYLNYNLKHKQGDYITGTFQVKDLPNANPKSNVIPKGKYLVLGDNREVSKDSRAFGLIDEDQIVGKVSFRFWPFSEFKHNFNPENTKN
Method in brief: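 Whole S. aureus cells (USA300, overexpressing SpsB) in PBS with MgCl2, CaCl2 and 0.1% Tween-80 served as enzyme source, mixed with 20 μM stock of (Dabcyl)βAla-KPAKAAE(Edans) substrate before use. Fluorescence (ex 340/em 490 nm) read kinetically over 30 min. IC50 from reaction rate versus 11-point inhibitor concentration.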

[5] = MRSA USA 300 NRS384, 35° C., 22 hours, read-out: MIC (μg/mL) S. aureus
[6] = E. coli ATCC 25922, 35° C., 22 hours, read-out: MIC (μg/mL) E. coli
[7] = read-out: MIC (μg/mL) E. coli IMP, E. coli MC4100 IMP4213, increased outer-membrane permeability, 35° C., 22 hours
[8] = read-out: MIC (μg/mL) S. aureus
[9] = read-out: MIC (μg/mL) E. coli IMP
[10] = read-out: MIC (μg/mL) S. aureus, MRSA USA 300 NRS384, 35° C., 22 hours
[11] = read-out: MIC (μg/mL) E. coli, E. coli ATCC 25922, 35° C., 22 hours

SMILES | MIC [1, 5] [µg/mL] | MIC [2, 6] [µg/mL] | MIC [3, 7] [µg/mL] | pIC50 [4] | MIC [1, 8] [µg/mL] | MIC ([2]; read-out: MIC (μg/mL) E. coli) [µg/mL] | MIC [3, 9] [µg/mL] | MIC [1, 10] [µg/mL] | MIC [2, 11] [µg/mL]
Cc1cc(-c2ccccc2)ccc1C(=O)N[C@@H](CCCN)C(=O)N(C)[C@@H]1C(=O)N[C@@H](C)C(=O)N[C@H](C(=O)NCC#N)Cc2ccc(OCCN)c(c2)-c2cc1ccc2OCCN [Compound 150] | 0.25 (≈ 0.296 µM) | 4 (≈ 4.73 µM) | 0.063 (≈ 0.0745 µM) | 9.09 |  |  |  |  | 
CCCCCCCOc1ccc(C(=O)N[C@@H](CCCN)C(=O)N(C)[C@@H]2C(=O)N[C@@H](C)C(=O)N[C@H](C(=O)NCC#N)Cc3ccc(OCCN)c(c3)-c3cc2ccc3OCCN)c(C)c1 [Compound 281] | 0.023 (≈ 0.026 µM) | 0.25 (≈ 0.283 µM) | 0.0078 (≈ 0.00882 µM) | 9.12 |  |  |  |  | 
CCCCCCCCCCCCCC(=O)N[C@@H](CCN)C(=O)N(C)[C@@H]1C(=O)N[C@@H](C)C(=O)N[C@H](C(=O)NCC#N)Cc2ccc(OCCO)c(c2)-c2cc1ccc2OCCN [Compound 325] | 0.13 (≈ 0.153 µM) | 0.5 (≈ 0.589 µM) | < 0.0039 | 9.11 |  |  |  |  | 
CCCC(C)(C)COc1ccc(C(=O)N[C@@H](CCN)C(=O)N(C)[C@@H]2C(=O)N[C@@H](C)C(=O)N[C@H](C(=O)NCC#N)Cc3ccc(OCCN)c(c3)-c3cc2ccc3OCCN)c(C)c1 [Compound 288] | 0.063 (≈ 0.0724 µM) | 0.25 (≈ 0.287 µM) | 0.0078 (≈ 0.00896 µM) | 8.96 |  |  |  |  | 
CCCCc1ccc(-c2ccc(C(=O)N[C@@H](CCCN)C(=O)N(C)[C@@H]3C(=O)N[C@@H](C)C(=O)N[C@H](C(=O)N4CC4C#N)Cc4ccc(OCCN)c(c4)-c4cc3ccc4OCCN)cc2)cc1 (some centres unmarked) [Compound 520] |  |  |  | 9.14 | 0.38 (≈ 0.422 µM) | 6 (≈ 6.67 µM) | 0.19 (≈ 0.211 µM) |  | 
CCCCC#CCOc1ccc(C(=O)N[C@@H](CCN)C(=O)N(C)[C@@H]2C(=O)N[C@@H](C)C(=O)N[C@H](C(=O)NCC#N)Cc3ccc(OCCN)c(c3)-c3cc2ccc3OCCN)c(Cl)c1 [Compound 283] | 0.063 (≈ 0.0711 µM) | 1 (≈ 1.13 µM) | 0.012 (≈ 0.0135 µM) | 9.06 |  |  |  |  | 
CCCCCCCCCCCC(=O)N[C@@H](CCN)C(=O)N(C)[C@@H]1C(=O)N[C@@H](C)C(=O)N[C@H](C(=O)NCC#N)Cc2ccc(OCCN)c(c2)-c2cc1ccc2OCCN [Compound 103] | 0.023 (≈ 0.028 µM) | 1 (≈ 1.22 µM) | 0.0078 (≈ 0.00951 µM) | 9.24 |  |  |  |  | 
C[C@@H]1NC(=O)[C@@H](N(C)C(=O)[C@H](CCN)NC(=O)c2ccc(-c3ccc(Cl)cc3)cc2)c2ccc(OCCN)c(c2)-c2cc(ccc2OCCN)C[C@@H](C(=O)NCC#N)NC1=O [Compound 147] |  |  | 0.023 (≈ 0.027 µM) | 9.16 |  |  |  | 0.094 (≈ 0.11 µM) | 1.5 (≈ 1.76 µM)
Cc1nc(-c2ccc([Si](C)(C)C)cc2)ncc1C(=O)N[C@@H](CCN)C(=O)N(C)[C@@H]1C(=O)N[C@@H](C)C(=O)N[C@H](C(=O)NCC#N)Cc2ccc(OCCN)c(c2)-c2cc1ccc2OCCN [Compound 170] |  |  |  | 9.14 | 0.073 (≈ 0.0806 µM) | 0.13 (≈ 0.143 µM) | 0.0085 (≈ 0.00938 µM) |  | 
Cc1cc(-c2cnc(CC(C)C)nc2)ccc1C(=O)N[C@@H](CCN)C(=O)N(C)[C@@H]1C(=O)N[C@@H](C)C(=O)N[C@H](C(=O)NCC#N)Cc2ccc(OCCN)c(c2)-c2cc1ccc2OCCN [Compound 179] | 0.047 (≈ 0.0528 µM) | 0.19 (≈ 0.213 µM) | 0.0078 (≈ 0.00876 µM) | 8.74 |  |  |  |  | 
C[C@@H]1NC(=O)[C@@H](N(C)C(=O)[C@H](CCN)NC(=O)c2ccc(C(C)(C)C)cc2C(F)F)c2ccc(OCCN)c(c2)-c2cc(ccc2OCCN)C[C@@H](C(=O)NCC#N)NC1=O [Compound 220] |  |  | 0.047 (≈ 0.0554 µM) | 8.82 |  |  |  | 0.25 (≈ 0.295 µM) | 2.5 (≈ 2.95 µM)
CCCCCCCCc1ccc(C(=O)N[C@@H](CCN)C(=O)N(C)[C@@H]2C(=O)N[C@@H](C)C(=O)N[C@H](C(=O)NCC#N)Cc3ccc(OCCN)c(c3)-c3cc2ccc3OCCN)c(/C=C/C(N)=O)c1 [Compound 450] | 0.13 (≈ 0.141 µM) | 16 (≈ 17.3 µM) | 0.063 (≈ 0.0682 µM) | 9.18 |  |  |  |  | 
C[C@@H]1NC(=O)[C@@H](N(C)C(=O)[C@H](CCN)NC(=O)c2ccc(CCc3ccccc3)cc2)c2ccc(OCCN)c(c2)-c2cc(ccc2OCCN)C[C@@H](C(=O)NCC#N)NC1=O [Compound 121] |  |  | 0.023 (≈ 0.0272 µM) | 8.92 |  |  |  | 0.13 (≈ 0.154 µM) | 2 (≈ 2.36 µM)
Cc1cc(-c2ccc(CC(C)C)cc2)ccc1C(=O)N[C@@H](CCO)C(=O)N(C)[C@@H]1C(=O)N[C@@H](C)C(=O)N[C@H](C(=O)NCC#N)Cc2ccc(OCCN)c(c2)-c2cc1ccc2OCCN [Compound 261] | 0.13 (≈ 0.146 µM) | 0.5 (≈ 0.562 µM) | 0.047 (≈ 0.0529 µM) | 8.34 |  |  |  |  | 
Cc1cc(-c2ccc(Cl)cc2)ccc1C(=O)N[C@@H](CCN)C(=O)N(C)[C@@H]1C(=O)N[C@@H](C)C(=O)N[C@H](C(=O)NCC#N)Cc2ccc(OCCN)c(c2)-c2cc1ccc2OCCN [Compound 148] | 0.055 (≈ 0.0635 µM) | 0.88 (≈ 1.02 µM) | 0.0098 (≈ 0.0113 µM) | 9.12 |  |  |  |  | 
Cc1cc(-c2ccc(C(F)(F)F)cc2)ccc1C(=O)N[C@@H](CCN)C(=O)N(C)[C@@H]1C(=O)N[C@@H](C)C(=O)N[C@H](C(=O)NCC#N)Cc2ccc(OCCN)c(c2)-c2cc1ccc2OCCN [Compound 143] | 0.047 (≈ 0.0522 µM) | 0.44 (≈ 0.489 µM) | 0.018 (≈ 0.02 µM) | 9.24 |  |  |  |  | 
CCCCCCCCCCCCCC(=O)N[C@@H](CCN)C(=O)N(C)[C@@H]1C(=O)N[C@@H](C)C(=O)N[C@H](C(=O)NCC#N)Cc2ccc(OCCC)c(c2)-c2cc1ccc2OCCN [Compound 323] | 0.75 (≈ 0.885 µM) | 1.5 (≈ 1.77 µM) | 0.094 (≈ 0.111 µM) | 8.55 |  |  |  |  | 
Cc1cc(C#CC2CCCCC2)ccc1C(=O)N[C@@H](CCN)C(=O)N(C)[C@@H]1C(=O)N[C@@H](C)C(=O)N[C@H](C(=O)NCC#N)Cc2ccc(OCCN)c(c2)-c2cc1ccc2OCCN [Compound 310] | 0.047 (≈ 0.0545 µM) | 0.13 (≈ 0.151 µM) | 0.0098 (≈ 0.0114 µM) | 9.00 |  |  |  |  | 
CCc1ccc(-c2ccc(C(=O)N[C@@H](CCN)C(=O)N(C)[C@@H]3C(=O)N[C@@H](C)C(=O)N[C@H](C(=O)NCC#N)Cc4ccc(OCCN)c(c4)-c4cc3ccc4OCCN)c(C)c2)cc1 [Compound 151] | 0.031 (≈ 0.036 µM) | 0.31 (≈ 0.36 µM) | 0.012 (≈ 0.014 µM) | 9.23 |  |  |  |  | 
C[C@@H]1NC(=O)[C@@H](N(C)C(=O)[C@H](CCCCN)NC(=O)c2ccc(-c3cc(Cl)cc(Cl)c3)cc2)c2ccc(OCCN)c(c2)-c2cc(ccc2OCCN)C[C@@H](C(=O)NCC#N)NC1=O [Compound 111] |  |  | 0.13 (≈ 0.142 µM) | 9.00 |  |  |  | 0.13 (≈ 0.142 µM) | 8 (≈ 8.74 µM)
Cc1cc(C2CCCC2)ccc1C(=O)N[C@@H](CCN)C(=O)N(C)[C@@H]1C(=O)N[C@@H](C)C(=O)N[C@H](C(=O)NCC#N)Cc2ccc(OCCN)c(c2)-c2cc1ccc2OCCN [Compound 215] | 0.19 (≈ 0.231 µM) | 1.8 (≈ 2.18 µM) | 0.039 (≈ 0.0473 µM) | 9.01 |  |  |  |  | 
CCCCCCCCCCCC(=O)N[C@@H](CO)C(=O)N(C)[C@@H]1C(=O)N[C@@H](C)C(=O)N[C@H](C(=O)NCC#N)Cc2ccc(OCCN)c(c2)-c2cc1ccc2OCCN [Compound 231] | 0.13 (≈ 0.161 µM) | 8 (≈ 9.91 µM) | 0.063 (≈ 0.0781 µM) | 9.24 |  |  |  |  | 
Cc1cc(-c2ccc(C(C)C)cc2)ccc1C(=O)N[C@@H](CCN)C(=O)N(C)[C@@H]1C(=O)N[C@@H](C)C(=O)N[C@H](C(=O)NCC#N)Cc2ccc(OCCN)c(c2)-c2cc1ccc2OCCN [Compound 145] | 0.047 (≈ 0.0538 µM) | 0.16 (≈ 0.183 µM) | 0.012 (≈ 0.0137 µM) | 9.23 |  |  |  |  | 
